# Calls of active or inactive are those of the source.
# Tests used:
# [1] = target: Induced myeloid leukemia cell differentiation protein Mcl-1 (Homo sapiens, UniProt Q07820); assay type: functional
# [2] = target: T1, Sentrin-specific protease 1 (Homo sapiens, UniProt Q9P0U3); assay: Dose response confirmation of small molecule inhibitors of the catalytic domain of the SUMO protease, SENP1 in a FRET assay.; assay type: functional; conditions: read-out: IC50_Mean
# T1 sequence (Q9P0U3 whole entry): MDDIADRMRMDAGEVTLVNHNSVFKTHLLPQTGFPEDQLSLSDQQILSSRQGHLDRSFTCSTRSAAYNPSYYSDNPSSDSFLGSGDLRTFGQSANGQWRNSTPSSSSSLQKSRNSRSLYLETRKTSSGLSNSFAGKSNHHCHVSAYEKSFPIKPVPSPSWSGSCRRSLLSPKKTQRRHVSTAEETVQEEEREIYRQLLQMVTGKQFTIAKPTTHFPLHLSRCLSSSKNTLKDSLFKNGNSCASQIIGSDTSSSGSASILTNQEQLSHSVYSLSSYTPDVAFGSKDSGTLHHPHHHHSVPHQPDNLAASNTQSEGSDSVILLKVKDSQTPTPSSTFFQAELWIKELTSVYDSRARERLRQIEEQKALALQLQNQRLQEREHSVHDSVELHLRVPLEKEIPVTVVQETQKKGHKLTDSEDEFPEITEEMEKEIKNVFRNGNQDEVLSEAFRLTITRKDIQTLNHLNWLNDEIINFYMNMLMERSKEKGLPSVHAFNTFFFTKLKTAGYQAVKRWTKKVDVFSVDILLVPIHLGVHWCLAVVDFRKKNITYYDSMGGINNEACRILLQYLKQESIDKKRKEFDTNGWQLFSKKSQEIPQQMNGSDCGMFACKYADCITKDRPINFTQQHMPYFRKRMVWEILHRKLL
# [3] = target: T2, Corticotropin-releasing factor receptor 2/Corticotropin-releasing factor-binding protein (Homo sapiens, UniProt P24387+Q13324); assay: activators of CRF receptor 2 with binding protein – uHTS hits, confirmation (AID 602473); assay type: functional; conditions: read-out: EC50_Mean
# T2 sequence (Q13324 whole entry): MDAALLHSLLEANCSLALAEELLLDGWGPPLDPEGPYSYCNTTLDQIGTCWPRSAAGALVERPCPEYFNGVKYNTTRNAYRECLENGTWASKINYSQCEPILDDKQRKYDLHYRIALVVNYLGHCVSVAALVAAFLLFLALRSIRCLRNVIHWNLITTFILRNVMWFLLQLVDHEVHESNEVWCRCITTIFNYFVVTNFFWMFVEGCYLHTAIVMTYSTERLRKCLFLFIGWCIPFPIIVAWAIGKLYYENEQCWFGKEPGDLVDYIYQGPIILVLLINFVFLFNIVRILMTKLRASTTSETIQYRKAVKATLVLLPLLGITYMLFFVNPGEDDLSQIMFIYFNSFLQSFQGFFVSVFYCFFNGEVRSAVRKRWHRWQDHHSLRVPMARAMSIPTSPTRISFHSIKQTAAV
# T2 sequence (P24387 whole entry): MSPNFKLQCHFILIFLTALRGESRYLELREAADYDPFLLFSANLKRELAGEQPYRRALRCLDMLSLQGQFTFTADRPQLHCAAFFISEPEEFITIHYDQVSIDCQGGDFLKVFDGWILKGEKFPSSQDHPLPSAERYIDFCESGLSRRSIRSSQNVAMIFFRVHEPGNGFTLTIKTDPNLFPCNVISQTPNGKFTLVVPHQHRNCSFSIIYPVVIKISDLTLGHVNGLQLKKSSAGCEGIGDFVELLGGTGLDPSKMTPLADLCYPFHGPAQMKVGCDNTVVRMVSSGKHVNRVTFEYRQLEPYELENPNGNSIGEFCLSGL
# [4] = antiviral protection against BTV-induced cell death – arbovirus, BSR cells, confirmation (AID 1250); assay type: functional;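 further: protection from viral cytopathic effect measured as cell viability by ATP luminescence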
# [5] = target: T1, Sentrin-specific protease 1; assay: SENP1 catalytic domain blockers, concentration series – biochemical, kinetic FRET, dose response (AID 651697); assay type: functional; conditions: read-out: IC50_Mean
# [6] = target: T2, Corticotropin-releasing factor receptor 2/Corticotropin-releasing factor-binding protein; assay: Dose Response confirmation of uHTS hits for small molecule antagonists of the CRF-binding protein and CRF-R2 receptor complex.; assay type: functional; conditions: read-out: IC50_Mean
# Bcl-2-like protein 10 = target: T3, Bcl-2-like protein 10 (Homo sapiens, UniProt Q9HD36); assay: Concentration-response of Bcl-B inhibitors by biochemical FP with TR3 (AID 1243); assay type: functional
# T3 sequence (Q9HD36 whole entry): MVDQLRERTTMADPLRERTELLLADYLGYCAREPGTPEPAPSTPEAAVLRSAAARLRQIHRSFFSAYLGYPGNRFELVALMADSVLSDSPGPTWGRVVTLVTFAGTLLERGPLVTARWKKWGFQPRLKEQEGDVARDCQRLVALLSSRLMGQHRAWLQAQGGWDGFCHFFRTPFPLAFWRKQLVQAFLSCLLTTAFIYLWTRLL
# [7] = target: T4, Sphingosine 1-phosphate receptor 4 (Homo sapiens, UniProt O95977); assay: Fluorescence dose response cell-based high throughput screening assay for antagonists of the Sphingosine 1-Phosphate Receptor 4 (S1P4). [Related pubchem assays: 1524 (Confirmation in triplicates.), 1510 (Primary screen.)]; assay type: functional
# T4 sequence (O95977 whole entry): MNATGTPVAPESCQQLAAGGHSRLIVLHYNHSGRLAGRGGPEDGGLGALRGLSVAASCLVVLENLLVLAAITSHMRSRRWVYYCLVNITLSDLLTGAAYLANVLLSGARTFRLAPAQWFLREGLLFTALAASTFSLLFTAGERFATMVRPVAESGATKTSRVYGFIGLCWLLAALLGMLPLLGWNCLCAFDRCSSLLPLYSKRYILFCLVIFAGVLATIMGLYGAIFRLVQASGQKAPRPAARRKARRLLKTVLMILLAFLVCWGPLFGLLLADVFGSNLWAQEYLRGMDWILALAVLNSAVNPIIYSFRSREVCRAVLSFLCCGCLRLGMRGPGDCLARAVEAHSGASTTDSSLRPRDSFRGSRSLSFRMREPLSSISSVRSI
# [8] = target: T4, Sphingosine 1-phosphate receptor 4; assay: Late stage fluorescence dose response cell-based screening assay for antagonists of the Sphingosine 1-Phosphate Receptor 4 (S1P4). [Related pubchem assays: 1524 (Confirmation screen (S1P4 antagonists).), 1510 (Primary screen (S1P4 antagonists).), 1853 (Summary AID (S1P4 antagonists).), 1692 (Dose response screen (S1P4 antagonists).)]; assay type: functional
# [9] = target: Sphingosine 1-phosphate receptor 2 (Homo sapiens, UniProt O95136); assay: Dose Response Cell Based Assay for Antagonists of the S1P2 Receptor. [Related pubchem assays: 856, 736 ]; assay type: functional
# Chain of Sphingosine 1-phosphate receptor 2 (O95136 whole entry): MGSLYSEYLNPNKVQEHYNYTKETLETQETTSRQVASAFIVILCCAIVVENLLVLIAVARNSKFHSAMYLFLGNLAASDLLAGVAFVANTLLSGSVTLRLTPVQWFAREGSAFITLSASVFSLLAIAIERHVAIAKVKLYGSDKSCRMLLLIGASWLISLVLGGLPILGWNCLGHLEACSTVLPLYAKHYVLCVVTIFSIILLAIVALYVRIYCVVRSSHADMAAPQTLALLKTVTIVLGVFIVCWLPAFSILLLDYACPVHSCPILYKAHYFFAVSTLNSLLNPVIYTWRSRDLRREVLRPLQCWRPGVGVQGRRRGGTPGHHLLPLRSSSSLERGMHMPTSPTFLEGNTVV
# Protein RecA = target: T5, Protein RecA (Mycobacterium tuberculosis, UniProt P9WHJ3); assay: Fluorescence Cell-Free Homogeneous Dose Retest to Identify Inhibitors of RecA-Intein Splicing Activity. [Related pubchem assays (depositor defined):AID2097, AID2223, AID489010, AID492950]; assay type: functional
# T5 sequence (P9WHJ3 whole entry): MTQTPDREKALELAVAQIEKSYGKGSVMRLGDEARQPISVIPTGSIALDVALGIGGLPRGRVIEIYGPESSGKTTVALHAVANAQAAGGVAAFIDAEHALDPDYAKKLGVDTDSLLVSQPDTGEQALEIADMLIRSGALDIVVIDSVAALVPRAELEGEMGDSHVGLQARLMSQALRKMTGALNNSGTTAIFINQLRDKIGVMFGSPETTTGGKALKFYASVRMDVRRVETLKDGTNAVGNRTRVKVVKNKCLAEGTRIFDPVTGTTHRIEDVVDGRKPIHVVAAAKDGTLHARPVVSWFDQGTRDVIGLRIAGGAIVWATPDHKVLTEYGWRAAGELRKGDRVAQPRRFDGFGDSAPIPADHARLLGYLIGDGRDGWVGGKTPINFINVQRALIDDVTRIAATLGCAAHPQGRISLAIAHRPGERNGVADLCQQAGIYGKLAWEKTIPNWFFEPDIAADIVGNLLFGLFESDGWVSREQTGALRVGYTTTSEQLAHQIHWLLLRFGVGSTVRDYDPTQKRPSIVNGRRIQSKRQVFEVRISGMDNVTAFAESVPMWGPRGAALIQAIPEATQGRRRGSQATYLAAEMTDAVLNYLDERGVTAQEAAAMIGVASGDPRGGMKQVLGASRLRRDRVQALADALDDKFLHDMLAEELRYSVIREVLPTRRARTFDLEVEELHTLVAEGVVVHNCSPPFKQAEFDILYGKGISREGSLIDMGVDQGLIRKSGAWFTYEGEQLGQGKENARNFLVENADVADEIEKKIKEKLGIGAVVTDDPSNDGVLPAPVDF
# [10] = target: T6, Replicative DNA helicase DnaB (Mycobacterium tuberculosis, UniProt P9WMR3); assay: DnaB intein splicing inhibitors, dose response, biochemical, cell-free fluorescence (AID 449749); assay type: functional
# T6 sequence (P9WMR3 whole entry): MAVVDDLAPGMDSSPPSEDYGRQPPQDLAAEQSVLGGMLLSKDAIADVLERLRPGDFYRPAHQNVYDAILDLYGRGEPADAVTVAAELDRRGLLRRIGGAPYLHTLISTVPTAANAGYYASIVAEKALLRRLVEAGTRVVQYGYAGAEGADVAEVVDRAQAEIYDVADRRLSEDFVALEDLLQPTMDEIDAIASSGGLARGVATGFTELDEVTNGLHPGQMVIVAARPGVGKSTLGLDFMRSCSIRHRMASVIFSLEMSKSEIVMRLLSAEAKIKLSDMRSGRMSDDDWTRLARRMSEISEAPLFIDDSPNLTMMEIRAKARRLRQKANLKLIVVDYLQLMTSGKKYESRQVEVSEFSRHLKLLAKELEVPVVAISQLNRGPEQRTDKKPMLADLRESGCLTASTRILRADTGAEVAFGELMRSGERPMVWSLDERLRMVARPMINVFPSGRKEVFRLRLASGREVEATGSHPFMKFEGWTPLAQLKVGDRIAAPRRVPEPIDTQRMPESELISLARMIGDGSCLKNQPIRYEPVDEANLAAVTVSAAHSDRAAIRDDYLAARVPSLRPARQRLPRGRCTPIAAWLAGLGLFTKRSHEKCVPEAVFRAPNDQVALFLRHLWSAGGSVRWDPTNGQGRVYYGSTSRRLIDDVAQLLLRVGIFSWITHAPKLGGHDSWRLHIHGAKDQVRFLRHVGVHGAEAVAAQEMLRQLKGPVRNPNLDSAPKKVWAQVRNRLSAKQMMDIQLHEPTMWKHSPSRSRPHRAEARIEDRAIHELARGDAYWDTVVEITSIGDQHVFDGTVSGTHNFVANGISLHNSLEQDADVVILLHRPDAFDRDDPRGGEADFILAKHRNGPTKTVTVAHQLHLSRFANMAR
# [11] = reduced cellular PGC1a acetyl-lysine signal – cell-based, cherry-picked samples, dose response (AID 720514); assay type: functional;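 further: potency may reflect raised or lowered acetylation signal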
# [12] = target: Sphingosine 1-phosphate receptor 1 (Homo sapiens, UniProt P21453); assay type: functional;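 further: Tango beta-arrestin reporter U2OS cells stimulated with S1P near its EC80; inhibitor potency meaning antagonism of receptor activation by the natural agonist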
# Chain of Sphingosine 1-phosphate receptor 1 (P21453 whole entry, the tested form may be a part): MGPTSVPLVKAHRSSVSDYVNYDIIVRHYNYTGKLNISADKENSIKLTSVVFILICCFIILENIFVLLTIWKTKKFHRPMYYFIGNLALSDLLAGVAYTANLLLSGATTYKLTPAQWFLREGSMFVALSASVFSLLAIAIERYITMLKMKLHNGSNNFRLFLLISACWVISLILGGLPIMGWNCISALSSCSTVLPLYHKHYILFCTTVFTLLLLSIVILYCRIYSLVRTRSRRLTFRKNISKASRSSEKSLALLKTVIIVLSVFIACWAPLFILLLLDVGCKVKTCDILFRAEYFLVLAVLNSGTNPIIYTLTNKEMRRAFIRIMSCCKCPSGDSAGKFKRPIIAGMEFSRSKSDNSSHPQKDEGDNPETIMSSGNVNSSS
# [13] = target: Photoreceptor-specific nuclear receptor (Homo sapiens, UniProt Q9Y5X4); assay type: functional, cell-based;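 further: CHO-S cells with Gal4-NCOR and VP16-NR2E3 two-hybrid luciferase reporter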
# Chain of Photoreceptor-specific nuclear receptor (Q9Y5X4 whole entry, the tested form may be a part): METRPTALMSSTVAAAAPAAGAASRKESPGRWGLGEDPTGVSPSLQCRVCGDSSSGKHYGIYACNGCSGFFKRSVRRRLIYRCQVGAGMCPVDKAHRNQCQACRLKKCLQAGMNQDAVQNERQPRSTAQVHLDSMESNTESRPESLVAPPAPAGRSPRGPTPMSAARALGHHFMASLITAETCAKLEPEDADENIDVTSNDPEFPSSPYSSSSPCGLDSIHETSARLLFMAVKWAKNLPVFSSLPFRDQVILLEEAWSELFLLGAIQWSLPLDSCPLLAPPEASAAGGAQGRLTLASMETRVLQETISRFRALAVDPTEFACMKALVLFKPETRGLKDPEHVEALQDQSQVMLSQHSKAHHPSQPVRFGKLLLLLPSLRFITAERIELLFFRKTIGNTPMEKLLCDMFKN
# Chain of Induced myeloid leukemia cell differentiation protein Mcl-1 (Q07820 whole entry, the tested form may be a part): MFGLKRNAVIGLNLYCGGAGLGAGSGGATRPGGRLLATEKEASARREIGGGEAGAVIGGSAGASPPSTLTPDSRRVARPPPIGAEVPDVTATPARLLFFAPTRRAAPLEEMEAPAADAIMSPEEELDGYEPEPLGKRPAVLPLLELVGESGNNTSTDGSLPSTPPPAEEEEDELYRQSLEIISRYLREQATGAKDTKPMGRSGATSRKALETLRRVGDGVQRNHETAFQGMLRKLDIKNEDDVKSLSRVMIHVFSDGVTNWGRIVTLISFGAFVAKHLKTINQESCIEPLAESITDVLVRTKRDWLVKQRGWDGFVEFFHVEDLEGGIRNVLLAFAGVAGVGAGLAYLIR
smiles,measurement,setting,value
COc1ccccc1C1C2=C(N=c3s/c(=C/c4cccc(OCC(=O)O)c4)c(=O)n31)c1ccccc1CC2 (stereo not given),IC50,[1],2.51 µM (active)
same,IC50,[2],25.4 µM (inactive)
same,EC50,[3],> 53 µM (inactive)
same,IC50,[4],21.3 µM (active)
same,IC50,[5],18.9 µM (active)
same,IC50,[6],> 47.1 µM (inactive)
COC(=O)C1=C(C)N(C)C(=O)NC1c1cc2c(cc1[N+](=O)[O-])OCO2 (stereo not given),EC50,Bcl-2-like protein 10,17.4 µM (active)
COc1ccc(NC(=O)/C(Cl)=C(/Cl)S(=O)(=O)Cc2ccccc2)cn1,IC50,[7],0.829 µM (active)
same,IC50,[8],5.28 µM (not active)
same,IC50,[9],1.76 µM (active)
same,EC50,Protein RecA,2.79 µM (active)
same,AC50,[10],2.44 µM (active)
same,AC50,[11],5.17 µM (active)
same,IC50,[12],8.15 µM (active)
same,IC50,[13],1.15 µM (active)
